{
  "source": "patent US7666989B2",
  "about": "(priority 2003, dated 2010)",
  "key": {"[1]": {"tested_on": "HL-60 (human promyelocytic leukemia cell)", "experiment": "MTT cytotoxicity, HL-60", "type": "cell-based", "conditions": "96 h, 4 days", "from_the_text": "(§1) Reagents: RPMI1640 is from GIBCO; MTT is from Bebco. Fetal bovine serum is purchased from Hangzhou SiJiQing Bioengineering Material Co. Ltd. (P. R. China).\n(§2) Cell lines: COLO 205 (human colon cancer cell), NCI-H460 (human lung cancer cell), RPMI 8226 (human multiple myeloma cell), U251 (human brain glioma cell) are from ATCC, USA. HL-60 (human promyelocytic leukemia cell), MDA-MB-231, MDA-MB-435 (human breast cancer cell), SCLC (human small-cell lung cancer cell), H125 (human lung cancer cell) and PC-3 (human […] cancer cell).\n(§3) The well-grown tumor cells were collected to prepare a cell suspension (1×10^4/ml) with RPMI 1640 medium containing 10% fetal bovine serum. The cell suspension was inoculated into a 96-well plate, 100 μL (containing 1000 tumor cells) per well. The plate was cultured in a 5% CO2 incubator at 37° C. for 24 hours, followed by addition of medicament.\n(§4) A blank control and a positive control using 5-fluorouracil or adriamycin are employed in the experiment. […]\n(§5) The supernatant was discarded. […] After gently shaking, the OD values were measured by a BIORAD 550 enzyme analyzer, with the detection wavelength being 540 nm and the reference wavelength being 450 nm.\n(§6) Dose-response curves were generated by plotting with the cell inhibition rates and different concentrations of medicament, and the half inhibitory concentrations (IC50) were calculated."}, "human brain glioma U251": {"tested_on": "human brain glioma U251", "from_the_text": "(§7) In this example, the animals used were BALB/c-nu nude mice, 6-8 weeks old. For each experiment, all animals were of the same sex.\n(§8) Tumor cell lines: human brain glioma U251, human lung cancer cell line NCI-H460, human colon cancer cell line COLO205 were inoculated from in vitro culture into nude mice subcutaneously, the tumors were subcultured and kept.\n(§9) Experimental Procedures: well-grown nude mice carrying well-grown tumors were selected and sacrificed by disjointing neck vertebra. The tumors were removed aseptically and were cut into pieces having a diameter of 2-3 mm by a scalpel. The pieces were inoculated into the axilla of nude mice subcutaneously by a needle. […] The length and width of tumors were measured by a vernier caliper. The animals were then grouped based their tumor sizes. Each group included seven to eight animals.\n(§10) The length, width of the tumor and the body weight of the mice were measured twice per week. The tumor volume (TV) and relative tumor volume (RTV) were calculated. A graph indicating the changes of tumor size was plotted. At the end of this experiment, the tumors were taken out and weighed after the mice were sacrificed, and the inhibition rates of the medicament on tumor growth were calculated.\n(§11) The formula for calculating tumor volume (TV) is: length×width^2÷2.\n(§12) The formula for calculating relative tumor volume (RTV) is: Vt/Vo (wherein Vo is the TV value measured when the administration is started, Vt is the TV value measured after that).\n(§13) T-test was used to determine the statistical difference of tumor weights, tumor volumes and RTV etc. between different groups of animal. The index used for evaluating the anti-tumor activity is the relative tumor growth rate T/C (%), the formula for which is: […]\n(§14) The evaluation standard for efficacy:\n(§15) T/C (%)>60 is ineffective;\n(§16) T/C (%)≦60 and P<0.05 after statistical analysis is effective.\nThe Carmustine (Renmin Pharmaceuticals, Amino Acid Inc. Tianjin, P. R. China) was used as the positive control, 40 mg/kg, administered by intraperitoneal injection for once. CPT was given to four groups at the doses of 0.6 mg/kg, 1.7 mg/kg, 5.0 mg/kg, 15.0 mg/kg respectively, administered by intraperitoneal injection. The treatment included ten injections."}, "[2]": {"tested_on": "human lung cancer NCI-H460", "experiment": "Growth of human lung cancer NCI-H460 xenograft in nude mice", "type": "in vivo, BALB/c-nu nude mice", "conditions": "Cyclophosphamide 100 mg/kg i.p., then 80 mg/kg two weeks later", "method": "The animals were then grouped based their tumor sizes. Each group included seven to eight animals.\nas §14, §15\nOne additional injection was given at 80 mg/kg two weeks later. […] The treatment contained a total of ten injections."}, "[3]": {"tested_on": "MDA-MB-435 (human breast cancer cell)", "experiment": "MTT cytotoxicity, MDA-MB-435", "type": "cell-based", "conditions": "Homo sapiens, 96 h, 4 days, read-out: IC50", "from_the_text": "as §1, §2, §3, §4, §5, §6"}, "[4]": {"tested_on": "H125 (human lung cancer cell)", "experiment": "MTT cytotoxicity, H125", "type": "cell-based", "conditions": "Homo sapiens, NCI-H125, 96 h, 4 days, read-out: IC50", "from_the_text": "as §1, §2, §3, §4, §5, §6"}, "[5]": {"tested_on": "RPMI 8226 (human multiple myeloma cell)", "experiment": "MTT cytotoxicity, RPMI 8226", "type": "cell-based", "conditions": "Homo sapiens, 96 h, 4 days, read-out: IC50", "from_the_text": "as §1, §2, §3, §4, §5, §6"}, "PC-3 (human cancer cell)": {"tested_on": "PC-3 (human cancer cell)", "experiment": "MTT cytotoxicity, PC-3", "type": "cell-based", "conditions": "Homo sapiens, 96 h, 4 days", "from_the_text": "as §1, §2, §3, §4, §5, §6"}, "[6]": {"tested_on": "U251 (human brain glioma cell)", "experiment": "MTT cytotoxicity, U251", "type": "cell-based", "conditions": "U-251, 96 h, 4 days", "from_the_text": "as §1, §2, §3, §4, §5, §6"}, "[7]": {"tested_on": "COLO 205 (human colon cancer cell)", "experiment": "MTT cytotoxicity, COLO 205", "type": "cell-based", "conditions": "Homo sapiens, 96 h, 4 days, read-out: IC50", "from_the_text": "as §1, §2, §3, §4, §5, §6"}, "[8]": {"tested_on": "SCLC (human small-cell lung cancer cell)", "experiment": "MTT cytotoxicity, SCLC", "type": "cell-based", "conditions": "Homo sapiens, 96 h, 4 days, read-out: IC50", "from_the_text": "as §1, §2, §3\nA blank control and a positive control using 5-fluorouracil or adriamycin are employed in the experiment. The CPT samples have five concentrations, three parallel wells for each concentration. The cells were cultured in an incubator with 5% CO2 at 37° C. for 4 days. Then the culture medium was removed and 100 μL MTT solution (0.4 mg/ml in RPMI 1640) was added to each well. The plate was incubated at 37° C. for four additional hours.\nThe supernatant was discarded. 150 μl DMSO was added into each well in order to solubilize Fomazan granulates. After gently shaking, the OD values were measured by a BIORAD 550 enzyme analyzer, with the detection wavelength being 540 nm and the reference wavelength being 450 nm.\nas §6"}, "[9]": {"tested_on": "NCI-H460 (human lung cancer cell)", "experiment": "MTT cytotoxicity, NCI-H460", "type": "cell-based", "conditions": "96 h, 4 days", "from_the_text": "as §1, §2, §3, §4, §5, §6"}, "[10]": {"tested_on": "MDA-MB-231 (human breast cancer cell)", "experiment": "MTT cytotoxicity, MDA-MB-231", "type": "cell-based", "conditions": "96 h, 4 days", "from_the_text": "as §1, §2, §3, §4, §5, §6"}, "[11]": {"tested_on": "human colon cancer COLO 205", "conditions": "COLO 205 xenograft, hydroxycamptothecin 1 mg/kg i.p. once per day 15 days, then further courses", "from_the_text": "as §7, §8, §9, §10, §11, §12, §13, §14, §15, §16\nInjectable hydroxycamptothecin (trade name: Xi Su, Wuhan Lishizhen Pharmaceuticals Inc., Huangshi Lishizhen Pharmaceuticals Group, P. R. China) was used as positive control, administered by intraperitoneal injection at the dose of 1 mg/kg, once per day. The administration was terminated after 15 consecutive days of administration. […] A single administration of 80 mg/kg hydroxycamptothecin was further given after two weeks. CPT was given to three treatment groups at the doses of 1.7 mg/kg, 5.0 mg/kg, 15.0 mg/kg respectively by intraperitoneal injection, once per day. The treatment contained a total of 15 injections."}, "[12]": {"conditions": "U251 xenograft, Carmustine 40 mg/kg i.p. once"}},
  "note": "Marks after values point to notes of the source that are not given here.",
  "data": [
    {"smiles": "COc1cccc2c1C(=O)c1c(O)c3c(c(O)c1C2=O)C[C@@](O)(C(=O)CO)C[C@@H]3O[C@H]1C[C@H](N)[C@H](O)[C@H](C)O1", "note": "[Adr, Adriamycin]", "values": [
      {"measurement": "IC50", "setting": "[1]", "value": 6, "unit": "ng/mL"}
    ]},
    {"smiles": "O=NN(CCCl)C(=O)NCCCl", "note": "[Carmustine, reference compound]", "values": [
      {"measurement": "RTV", "setting": "human brain glioma U251; [12]", "value": "0.54 ± 0.29"},
      {"measurement": "T/C (%)", "setting": "human brain glioma U251; [12]", "value": 16.0, "unit": "%"},
      {"measurement": "Tumor volume (mm^3) End", "setting": "human brain glioma U251; [12]", "value": "109 ± 78** mm^3"},
      {"measurement": "Tumor weight", "setting": "human brain glioma U251; [12]", "value": "0.09 ± 0.06", "unit": "g"},
      {"measurement": "Tumor volume (mm^3) Start", "setting": "human brain glioma U251; U251 xenograft, Carmustine 40 mg/kg i.p. once, baseline", "value": "153 ± 35", "unit": "mm^3"},
      {"measurement": "Inhibition rate (%)", "setting": "human brain glioma U251; U251 xenograft, Carmustine 40 mg/kg i.p. once, by tumor weight", "value": 93.0, "unit": "%"},
      {"measurement": "Body Weight (g) End", "setting": "human brain glioma U251; mouse, in vivo", "value": "19.4 ± 2.1", "unit": "g"},
      {"measurement": "Body Weight (g) Start", "setting": "human brain glioma U251; mouse, in vivo", "value": "22.8 ± 0.7", "unit": "g"}
    ]},
    {"smiles": "O=P1(N(CCCl)CCCl)NCCCO1", "note": "(stereo not shown) [Cyclophosphamide, reference compound]", "values": [
      {"measurement": "Body Weight (g) End", "setting": "[2]", "value": "16.1 ± 2.2", "unit": "g"},
      {"measurement": "RTV", "setting": "[2]", "value": "3.67 ± 2.15"},
      {"measurement": "T/C (%)", "setting": "[2]", "value": 61.4, "unit": "%"},
      {"measurement": "Tumor volume (mm^3) End", "setting": "[2]", "value": "1121 ± 434", "unit": "mm^3"},
      {"measurement": "Tumor weight", "setting": "[2]", "value": "0.96 ± 0.35", "unit": "g"},
      {"measurement": "Body Weight (g) Start", "setting": "[2]; baseline", "value": "20.0 ± 1.3", "unit": "g"},
      {"measurement": "Tumor volume (mm^3) Start", "setting": "[2]; baseline", "value": "179 ± 52", "unit": "mm^3"},
      {"measurement": "Inhibition rate (%)", "setting": "[2]; by tumor weight", "value": 40.4, "unit": "%"}
    ]},
    {"smiles": "O=c1[nH]cc(F)c(=O)[nH]1", "note": "[Fu, 5-fluorouracil, reference compound]", "values": [
      {"measurement": "IC50", "setting": "[3]", "value": "0.199 ± 0.138", "unit": "µg/mL"},
      {"measurement": "IC50", "setting": "[4]", "value": "0.138 ± 0.031", "unit": "µg/mL"},
      {"measurement": "IC50", "setting": "[5]", "value": "< 0.1", "unit": "µg/mL"},
      {"measurement": "IC50", "setting": "PC-3 (human cancer cell)", "value": "4.93 ± 0.753", "unit": "µg/mL"},
      {"measurement": "IC50", "setting": "[6]", "value": "0.981 ± 0.077", "unit": "µg/mL"},
      {"measurement": "IC50", "setting": "[7]", "value": "0.826 ± 0.051", "unit": "µg/mL"},
      {"measurement": "IC50", "setting": "[8]", "value": "0.617 ± 0.0257", "unit": "µg/mL"},
      {"measurement": "IC50", "setting": "[9]", "value": "0.566 ± 0.016", "unit": "µg/mL"},
      {"measurement": "IC50", "setting": "[10]", "value": "0.318 ± 0.055", "unit": "µg/mL"}
    ]},
    {"smiles": "CC[C@@]1(O)C(=O)OCc2c1cc1n(c2=O)Cc2cc3cc(O)ccc3nc2-1", "note": "[Hydroxycamptothecin, hydroxycamptothecin, reference compound]", "values": [
      {"measurement": "Body Weight (g) End", "setting": "[11]", "value": "21.0 ± 2.5", "unit": "g"},
      {"measurement": "RTV", "setting": "[11]", "value": "3.92 ± 1.91"},
      {"measurement": "T/C (%)", "setting": "[11]", "value": 47.2, "unit": "%"},
      {"measurement": "Tumor volume (mm^3) End", "setting": "[11]", "value": "845 ± 66** mm^3"},
      {"measurement": "Tumor weight", "setting": "[11]", "value": "0.66 ± 0.26", "unit": "g"},
      {"measurement": "Body Weight (g) Start", "setting": "[11]; baseline", "value": "20.4 ± 0.9", "unit": "g"},
      {"measurement": "Tumor volume (mm^3) Start", "setting": "[11]; baseline", "value": "150 ± 34", "unit": "mm^3"},
      {"measurement": "Inhibition rate (%)", "setting": "[11]; by tumor weight", "value": 66.3, "unit": "%"}
    ]}
  ]
}
